Holding throughout (experiment): DTP human tumour cell line panel, 48 h
The subject of experiment [1] is OVCAR-5 ovarian.
Experiment [2] deals with SK-MEL-2 melanoma.
In experiment [3] the test system is SF-295 CNS.
For experiment [4], the system named is PC-3 prostate.
Experiment [5] relates to LOX IMVI melanoma.
Experiment [6] concerns SNB-75 CNS.
The subject of experiment [7] is HOP-92 NSCLC.
The subject of experiment [8] is MOLT-4 leukemia.
Experiment [9] deals with SF-268 CNS.
The subject of experiment [10] is RXF 393 renal.

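All cell lines were grown in 96-well plates and treated with compound for 48 hours. Here, GI50 denotes the concentration required for 50% inhibition of growth. At the TGI there is no net growth.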

A word on the GI50: it is the concentration that inhibits growth by half. The term TGI denotes the concentration at which net growth stops. Higher therefore signals less potent growth arrest. On to `CCOC(=O)c1cnn(-c2ccnc3c(C(F)(F)F)cccc23)c1N`, for which the GI50 in experiment [1] was more than 100 µM; in [2], more than 100 µM; in [3] it was more than 100 µM; in experiment [4], more than 100 µM; in experiment [5], more than 100 µM; in [6], 51.7 µM. Also, the GI50 in experiment [7] was 29.6 µM; in experiment [8], more than 100 µM; in experiment [9], more than 100 µM; in experiment [10], more than 100 µM. Moreover, the TGI in experiment [1], in experiment [2], in experiment [3], in experiment [4], in experiment [5] and in experiment [6] was more than 100 µM throughout. The TGI in [7], in [8], in experiment [9] and in [10] was more than 100 µM throughout.

With `CCN1C(=O)N(CC)C2C1NN=c1s/c(=C3\C(=O)N(C)c4ccccc43)c(=O)n12` (stereo not given), the GI50 is 3.3 µM in [1]; 3.06 µM in [2]; 0.999 µM in experiment [3]; 1.14 µM in experiment [4]; 0.958 µM in experiment [5]; 0.397 µM in experiment [6]. Further, the GI50 in experiment [7] is 0.685 µM; in experiment [8], 1.7 µM; in experiment [9], 10.8 µM; in [10], 0.587 µM. Moreover, the TGI is more than 100 µM in experiment [1]; more than 100 µM in experiment [2]; more than 28.8 µM in experiment [3]; more than 100 µM in experiment [4]; more than 100 µM in [5]; 20.3 µM in experiment [6]. For the same molecule, the TGI in experiment [7] was more than 100 µM; in experiment [8], more than 100 µM; in [9] it was more than 100 µM; in experiment [10] it was 4.81 µM.

For the molecule `COc1ccccc1-c1c(C)nn2c(NCc3ccccn3)cc(C)nc12`, the GI50 in experiment [1] was more than 50 µM; in [2], more than 50 µM; in experiment [3], 21.2 µM; in experiment [4], 30.6 µM; in experiment [5], 29.8 µM; in experiment [6], more than 50 µM. Further, the GI50 was 15.9 µM in [7], 7.68 µM in experiment [8], 34.8 µM in [9] and 33.5 µM in [10]. Moreover, the TGI in [1], in experiment [2], in experiment [3], in [4], in [5] and in [6] was more than 50 µM in each case. In addition, the TGI in experiment [7], in [8], in experiment [9] and in [10] was more than 50 µM throughout.

On to `C=C[C@]1(C)C=C2C(=O)[C@@]3(O)OC[C@@]4(CCCC(C)(C)C43O)C2(O)C(O)C1` (stereo not given in full), for which the GI50 in experiment [1] is 12.1 µM; in experiment [2], 12.4 µM; in experiment [3], 21.6 µM; in experiment [4], 14.9 µM; in experiment [5], 1.96 µM; in [6], 3.51 µM. The GI50 is 5.13 µM in [7], 3.09 µM in experiment [8], 11.3 µM in experiment [9] and 1.62 µM in experiment [10]. Further, the TGI in [1] is 25.9 µM; in experiment [2], 27.4 µM; in experiment [3] it was more than 70.5 µM; in experiment [4] it was 32.7 µM; in experiment [5], 6.48 µM; in experiment [6], 14 µM. Besides, the TGI in [7] came to 18.5 µM; in experiment [8], 15.2 µM; in [9], 23.9 µM; in [10] it was 3.48 µM.

As to `COc1ccc2c(c1)C(=O)c1c-2n(CCCN2CCOCC2)c(=O)c2ccccc12`, the GI50 in [1] was 6.18 µM; in experiment [2] it was 14.5 µM; in experiment [3] it was 1.35 µM; in experiment [4], 8.67 µM; in [5], 1.45 µM; in [6], 3.86 µM. In addition, the GI50 was 8.39 µM in experiment [7], 1.47 µM in experiment [8], 2.7 µM in [9] and 3.22 µM in experiment [10]. For the same molecule, the TGI in experiment [1] was more than 100 µM; in [2] it was 63.4 µM; in [3], 9.71 µM; in [4], more than 100 µM; in [5], 3.36 µM; in experiment [6], 23.1 µM. The TGI in [7] was more than 57.5 µM; in [8], more than 100 µM; in experiment [9], more than 43.9 µM; in experiment [10], more than 21.6 µM.

Take `CCOC(=O)c1c(C)n(Cc2ccc(Cl)cc2Cl)c2c1cc1oc(=O)c(=O)n3c(Cc4ccccc4)nc2c13`: the GI50 was 2.73 µM in [1]; 11.8 µM in experiment [2]; 2.32 µM in experiment [3]; 2.06 µM in experiment [4]; 1.83 µM in experiment [5]; 10.1 µM in experiment [6]. The GI50 was 1.56 µM in experiment [7], 2.12 µM in experiment [8], 2.31 µM in experiment [9] and 2.98 µM in [10]. The TGI in experiment [1] worked out at 6.16 µM; in experiment [2], 32.6 µM; in [3], 10.9 µM; in experiment [4], 5.01 µM; in [5] it was 3.38 µM; in experiment [6], 27.7 µM. Also, the TGI is 3.81 µM in experiment [7], 4.55 µM in experiment [8], 5.84 µM in experiment [9] and 7.34 µM in experiment [10].

As to `COc1cc2cc(Oc3ccc(NC(=O)c4ccc(Cl)c(C(F)(F)F)c4)cc3)c(C)nc2cc1OC`, the GI50 in experiment [1] is 55.9 µM; in [2], 18.3 µM; in experiment [3] it was 2.28 µM; in experiment [4], 4.3 µM; in experiment [5], 7.59 µM; in [6], 16.4 µM. Further, the GI50 in [7] was 13.6 µM; in experiment [8], 9.7 µM; in experiment [9], 37.2 µM; in [10], 9.04 µM. For the same molecule, the total growth inhibition concentration (TGI) in experiment [1] is more than 100 µM; in [2], 51.1 µM; in [3], 25.7 µM; in experiment [4], more than 100 µM; in experiment [5], more than 100 µM; in experiment [6] it was more than 100 µM. Moreover, the TGI is 71.3 µM in experiment [7], 70.5 µM in experiment [8], more than 100 µM in experiment [9] and more than 100 µM in experiment [10].

`CC(C)(Br)C(=O)/C=C/c1ccccc1`: the TGI is 19.7 µM in experiment [1]; 3.96 µM in experiment [2]; more than 53.6 µM in experiment [3]; 33.7 µM in experiment [4]; 9.75 µM in experiment [5]; 32.6 µM in [6]. Also, the TGI was 18 µM in experiment [7], more than 43.7 µM in experiment [8], 51.2 µM in experiment [9] and 3.12 µM in [10].

For the molecule `O=C(NN1C(=O)CSC1c1ccc(Cl)cc1)c1[nH]c2ccc(F)cc2c1-c1ccccc1` (stereo not given), the GI50 in [1] is 2.64 µM; in experiment [2] it was 9.61 µM; in [3], 2.86 µM; in experiment [4] it was 2.72 µM; in experiment [5], 2.65 µM; in experiment [6] it was 5.04 µM. In addition, the GI50 in experiment [7] is 2.42 µM; in experiment [8], 2.4 µM; in experiment [9], 2.51 µM; in experiment [10], 3.42 µM. The TGI is 8.34 µM in experiment [1]; 26.3 µM in experiment [2]; 11.4 µM in [3]; 8.89 µM in [4]; 7.18 µM in experiment [5]; 21 µM in [6]. For the same molecule, the TGI in [7] was 6.6 µM; in experiment [8], 8.17 µM; in [9], 7.19 µM; in experiment [10], 15.4 µM.

`O=[N+]([O-])c1ccc(CS(=O)Cc2ccccc2)cc1` (stereo not given): the TGI in [1], in [2], in experiment [3], in experiment [4], in [5] and in experiment [6] was more than 100 µM throughout. Further, the TGI in [7], in experiment [8], in experiment [9] and in experiment [10] was more than 100 µM in each case.

`Cc1ncc([N+](=O)[O-])n1CCNC(=O)CCCn1cnc([N+](=O)[O-])n1`: the TGI in [1], in experiment [2], in experiment [3], in experiment [4], in [5] and in [6] was more than 100 µM in each case. Besides, the TGI in experiment [7], in [8], in experiment [9] and in [10] was more than 100 µM in each case.

For `COc1cnc2c(c1)C(=O)c1c-2n(CCCN2CCCC2)c(=O)c2cc(Cl)ccc12`, the GI50 was 5.02 µM in experiment [1]; 7.16 µM in experiment [2]; 0.0278 µM in experiment [3]; 0.859 µM in experiment [4]; 0.0423 µM in [5]; 0.347 µM in experiment [6]. Further, the GI50 in experiment [7] is 2.2 µM; in experiment [8], 0.0193 µM; in experiment [9], 0.17 µM; in experiment [10], 0.705 µM. The TGI in [1] amounted to 11.3 µM; in [2] it was 22.6 µM; in experiment [3], 6.8 µM; in experiment [4], 9.48 µM; in experiment [5], 5.96 µM; in experiment [6], 7.79 µM. The TGI in [7] was found to be 12.1 µM; in experiment [8], 6.23 µM; in experiment [9], 9.38 µM; in [10], 5.82 µM.
